In ChEMBL document CHEMBL1201862, “PubChem BioAssay data set” (2004):
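48-hour exposure; five concentrations; linearly interpolated endpoints. Abbreviation: GI50, concentration required for 50% inhibition of growth.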 The source made the active and inactive calls. No stated cut-off is given here; in the data, active = GI50 up to about 1.1 µM and inactive = higher.

Columns and labels:
Assay in all cases: NCI tumour cell line growth inhibition, 48 h
UO-31 = test system: UO-31
SF-539 = test system: SF-539
M14 = test system: M14
NCI-H460 = test system: NCI-H460
Hs-578T = test system: Hs-578T
TK-10 = test system: TK-10
MDA-MB-435 = test system: MDA-MB-435
RPMI-8226 = test system: RPMI-8226
HOP-62 = test system: HOP-62
NCI-H522 = test system: NCI-H522
RXF 393 = test system: RXF 393
MDA-N = test system: MDA-N
UACC-257 = test system: UACC-257
NCI-H226 = test system: NCI-H226
Malme-3M = test system: Malme-3M
CCRF-CEM = test system: CCRF-CEM
DU-145 = test system: DU-145
LOX IMVI = test system: LOX IMVI
MDA-MB-231 = test system: MDA-MB-231
MOLT-4 = test system: MOLT-4
HCC 2998 = test system: HCC 2998
SNB-19 = test system: SNB-19
SF-268 = test system: SF-268
BT-549 = test system: BT-549
A498 = test system: A498
K562 = test system: K562
MCF7 = test system: MCF7
KM12 = test system: KM12
SK-OV-3 = test system: SK-OV-3
SNB-75 = test system: SNB-75
SK-MEL-28 = test system: SK-MEL-28
ACHN = test system: ACHN
HT-29 = test system: HT-29
OVCAR-5 = test system: OVCAR-5
HL-60 = test system: HL-60
UACC-62 = test system: UACC-62
SK-MEL-2 = test system: SK-MEL-2
HCT-116 = test system: HCT-116
OVCAR-3 = test system: OVCAR-3
HCT-15 = test system: HCT-15
T47D = test system: T47D
NCI-H23 = test system: NCI-H23
SR = test system: SR
EKVX = test system: EKVX
SN12C = test system: SN12C
U-251 = test system: U-251

## CCOC(=O)C(OP(=O)(OCC)OCC)C(F)(F)F (stereo unspecified)
UO-31
  GI50: > 100 µM (inactive)
SF-539
  GI50: > 100 µM (inactive)
M14
  GI50: > 100 µM (inactive)
NCI-H460
  GI50: > 100 µM (inactive)
Hs-578T
  GI50: > 100 µM (inactive)
TK-10
  GI50: > 100 µM (inactive)
MDA-MB-435
  GI50: > 100 µM (inactive)
RPMI-8226
  GI50: > 100 µM (inactive)
HOP-62
  GI50: > 100 µM (inactive)
NCI-H522
  GI50: > 100 µM (inactive)
RXF 393
  GI50: > 100 µM (inactive)
MDA-N
  GI50: > 100 µM (inactive)
UACC-257
  GI50: > 100 µM (inactive)
NCI-H226
  GI50: > 100 µM (inactive)
Malme-3M
  GI50: > 100 µM (inactive)
CCRF-CEM
  GI50: > 100 µM (inactive)
DU-145
  GI50: > 100 µM (inactive)
LOX IMVI
  GI50: > 100 µM (inactive)
MDA-MB-231
  GI50: > 100 µM (inactive)
MOLT-4
  GI50: > 100 µM (inactive)
HCC 2998
  GI50: > 100 µM (inactive)
SNB-19
  GI50: > 100 µM (inactive)
SF-268
  GI50: > 100 µM (inactive)
BT-549
  GI50: > 100 µM (inactive)
A498
  GI50: > 100 µM (inactive)
K562
  GI50: > 100 µM (inactive)
MCF7
  GI50: > 100 µM (inactive)
KM12
  GI50: > 100 µM (inactive)
SK-OV-3
  GI50: > 100 µM (inactive)
SNB-75
  GI50: > 100 µM (inactive)
SK-MEL-28
  GI50: > 100 µM (inactive)
ACHN
  GI50: > 100 µM (inactive)
HT-29
  GI50: > 100 µM (inactive)
OVCAR-5
  GI50: > 100 µM (inactive)
HL-60
  GI50: > 100 µM (inactive)
UACC-62
  GI50: > 100 µM (inactive)
SK-MEL-2
  GI50: > 100 µM (inactive)
HCT-116
  GI50: > 100 µM (inactive)
OVCAR-3
  GI50: > 100 µM (inactive)
HCT-15
  GI50: > 100 µM
T47D
  GI50: > 100 µM (inactive)
NCI-H23
  GI50: > 100 µM (inactive)
SR
  GI50: > 100 µM (inactive)
EKVX
  GI50: > 100 µM (inactive)
SN12C
  GI50: > 100 µM (inactive)
U-251
  GI50: > 100 µM (inactive)
